Source: US20240262806A1, “INHIBITORS OF NLRP3” (PTC THERAPEUTICS, INC., priority 2021, published 2024)
Where a name gives a salt, the structure may show the parent alone.

system: NLRP3 inflammasome; assay: IL-1β Secretion Assay (NLRP3-dependent IL-1β secretion in PMA-differentiated THP-1 cells, nigericin activation, HTRF); assay type: cell-based; settings: Homo sapiens, THP-1, THP-1 cells, 100 ng/mL PMA 24 h, compound 20 h, 2.5 μM Nigericin 3 h; read-out: IC50 IL-1β Inhibition
Method in brief: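 PMA-differentiated THP-1 cells in RPMI with 5% FBS were treated with compounds at 7 concentrations in threefold DMSO dilutions. NLRP3 was activated with nigericin and secreted IL-1β measured by HTRF. IC50 from a logistic fit of percent inhibition versus concentration.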

Compared with `COc1cc(C(F)(F)F)ccc1-c1nnc(N[C@@H]2CCCN(C)C2)n2ccnc12` [Compound I-386, 8-[2-Methoxy-4-(trifluoromethyl)phenyl]-N-[(3R)-1-methyl-3-piperidyl]imidazo[1,2-d][1,2,4]triazin-5-amine formic acid salt], `CN1CCC[C@@H](Nc2nnc(-c3ccc(C(F)(F)F)cc3O)c3nccn23)C1` [Compound I-398, 2-[5-[[(3R)-1-Methyl-3-piperidyl]amino]imidazo[1,2-d][1,2,4]triazin-8-yl]-5-(trifluoromethyl)phenol formic acid salt] is higher in IC50: 0.1 to 0.3 µM for the first, greater than 0.3 µM for the second. The first is the more potent here.

First: CN1C[C@H](O)C[C@@H](Nc2nnc(-c3c(O)cc(C4CC4)cc3F)c3cccn23)C1 [Compound I-387, (3R,5R)-5-[[1-(4-Cyclopropyl-2-fluoro-6-hydroxy-phenyl)pyrrolo[1,2-d][1,2,4]triazin-4-yl]amino]-1-methyl-piperidin-3-ol]
Second: CN1C[C@H](F)C[C@@H](Nc2nnc(-c3c(O)cc(C4CC4)cc3F)c3cccn23)C1 [Compound I-445, 5-Cyclopropyl-3-fluoro-2-[4-[[(3R,5R)-5-fluoro-1-methyl-3-piperidyl]amino]-pyrrolo[1,2-d][1,2,4]triazin-1-yl]phenol]
The IC50 of the first is higher: 0.01 to 0.1 µM for the first, 0.001 to 0.01 µM for the second. The second is the more potent here.

`FC(F)Oc1cc(C(F)(F)F)ccc1-c1nnc(N[C@@H]2CCOC2)n2cccc12` [Compound I-388] and `CN1C[C@H](F)C[C@@H](Nc2nnc(-c3ccc(C(F)(F)F)cc3OC(F)F)c3cccn23)C1` [Compound I-413, 1-[2-(Difluoromethoxy)-4-(trifluoromethyl)phenyl]-N-[(3R,5R)-5-fluoro-1-methyl-3-piperidyl]pyrrolo[1,2-d][1,2,4]triazin-4-amine] fall in the same range of IC50: 0.001 to 0.01 µM for the first, 0.001 to 0.01 µM for the second.

First: C[C@H](O)CNc1nnc(-c2ccc(C(F)(F)F)cc2OC(F)F)c2cccn12 [Compound I-389]
Second: C[C@@H](O)CNc1nnc(-c2ccc(C(F)(F)F)cc2OC(F)F)c2c(F)ccn12 [Compound I-440]
The IC50 of the first is lower: 0.001 to 0.01 µM for the first, 0.01 to 0.1 µM for the second.

First: COc1cc(Br)ccc1-c1nnc(N[C@@H]2CCCNC2)n2nccc12 [Compound I-390]
Second: Oc1cc(Br)ccc1-c1nnc(N[C@@H]2CCCNC2)n2nccc12 [Compound I-391]
The IC50 of the first is higher: 0.1 to 0.3 µM for the first, 0.001 to 0.01 µM for the second.

First: CCN1CCC[C@@H](Nc2nnc(-c3ccc(OC)cc3C(F)(F)F)c3cccn23)C1 [Compound I-392]
Second: CCN1CCC[C@@H](Nc2nnc(-c3c(O)cc(C(F)(F)F)cc3F)c3cccn23)C1 [Compound I-414]
The IC50 of the first is higher: 0.001 to 0.01 µM for the first, less than 0.001 µM for the second. The second is the more potent here.

First: CN1CCC[C@@H](Nc2nnc(-c3ccc(C(F)(F)F)cc3O)c3c(F)ccn23)C1 [Compound I-393]
Second: CN1CCC[C@@H](Nc2nnc(-c3ccc(OC(F)(F)F)cc3O)c3c(F)ccn23)C1 [Compound I-441]
The IC50 of the first is lower: less than 0.001 µM for the first, 0.001 to 0.01 µM for the second.

`CN1CCC[C@@H](Nc2nnc(-c3ccc(C(F)(F)F)cc3OC(F)F)c3c(F)ccn23)C1` [Compound I-394] and `CN1C[C@H](F)C[C@@H](Nc2nnc(-c3ccc(C(F)(F)F)cc3OC(F)F)c3c(F)ccn23)C1` [Compound I-439] fall in the same range of IC50: 0.001 to 0.01 µM for the first, 0.001 to 0.01 µM for the second.

Compared with `Oc1cc(C(F)(F)F)cc(F)c1-c1nnc(N[C@@H]2CCCOC2)n2cccc12` [Compound I-395], `Cc1cc(O)c(-c2nnc(N[C@@H]3CCCOC3)n3cccc23)c(F)c1` [Compound I-421] is lower in IC50: 0.01 to 0.1 µM for the first, 0.001 to 0.01 µM for the second. The second is the more potent here.

First: Cc1ccc(-c2nnc(N[C@@H]3CCCN(C)C3)n3nc(C)cc23)c(OC(F)(F)F)c1 [Compound I-396, (R)-2-Methyl-4-(4-methyl-2-(trifluoromethoxy)phenyl)-N-(1-methylpiperidin-3-yl)pyrazolo[1,5-d][1,2,4]triazin-7-amine]
Second: Cc1cc2c(-c3c(O)cc(C4CC4)cc3F)nnc(N[C@@H]3CCCN(C)C3)n2n1 [Compound I-429]
The IC50 of the first is higher: 0.01 to 0.1 µM for the first, less than 0.001 µM for the second.

Compared with `Oc1cc(C(F)(F)F)ccc1-c1nnc(N[C@@H]2CCCOC2)n2cncc12` [Compound I-397], `Oc1cc(C(F)(F)F)ccc1-c1nnc(N[C@@H]2CCCOC2)n2cccc12` [Compound I-401] is higher in IC50: 0.01 to 0.1 µM for the first, 0.1 to 0.3 µM for the second.

`Oc1cc(C(F)(F)F)ccc1-c1nnc(N[C@@H]2CCC[C@H](O)C2)n2cccc12` [Compound I-399] and `Oc1cc(C(F)(F)F)ccc1-c1nnc(N[C@@H]2CC[C@H](O)C2)n2cccc12` [Compound I-448] fall in the same range of IC50: 0.01 to 0.1 µM for the first, 0.01 to 0.1 µM for the second.

First: CO[C@H]1CCC[C@@H](Nc2nnc(-c3ccc(C(F)(F)F)cc3O)c3cccn23)C1 [Compound I-400]
Second: CN1C[C@H](F)C[C@@H](Nc2nnc(-c3ccc(C(F)(F)F)cc3O)c3cccn23)C1 [Compound I-410]
The IC50 of the first is higher: 0.1 to 0.3 µM for the first, 0.001 to 0.01 µM for the second.

First: Oc1cc(Cl)ccc1-c1nnc(N[C@@H]2CCCOC2)n2cccc12 [Compound I-402]
Second: CC(C)N1CCC[C@@H](Nc2nnc(-c3ccc(Cl)cc3O)c3cccn23)C1 [Compound I-404]
The IC50 of the first is higher: 0.01 to 0.1 µM for the first, less than 0.001 µM for the second. The second is the more potent here.

First: CC(C)(O)CN1CCC[C@@H](Nc2nnc(-c3ccc(Cl)cc3O)c3cccn23)C1 [Compound I-403]
Second: CC(C)(O)CN1CCC[C@@H](Nc2nnc(-c3c(O)cc(C(F)(F)F)cc3F)c3cccn23)C1 [Compound I-417]
The IC50 of the first is higher: 0.01 to 0.1 µM for the first, 0.001 to 0.01 µM for the second. The second is the more potent here.

Compared with `Oc1cc(C(F)(F)F)ccc1-c1nnc(N[C@H]2C[C@](O)(C(F)(F)F)C2)n2cccc12` [Compound I-405], `C[C@]1(O)C[C@@H](Nc2nnc(-c3ccc(C(F)(F)F)cc3O)c3cccn23)C1` [Compound I-406] is lower in IC50: 0.1 to 0.3 µM for the first, 0.001 to 0.01 µM for the second. The second is the more potent here.

`COc1cc(C#N)ccc1-c1nnc(N[C@@H]2CCCN(C)C2)n2cccc12` [Compound I-407] and `Cc1ccc(-c2nnc(N[C@@H]3CCCN(C)C3)n3cccc23)c(C(F)F)c1` [Compound I-425, 1-[2-(Difluoromethyl)-4-methyl-phenyl]-N-[(3R)-1-methyl-3-piperidyl]pyrrolo[1,2-d][1,2,4]triazin-4-amine] fall in the same range of IC50: 0.01 to 0.1 µM for the first, 0.01 to 0.1 µM for the second.

`CN1C[C@H](F)C[C@@H](Nc2nnc(-c3ccc(OC(F)(F)F)cc3O)c3cccn23)C1` [Compound I-409] and `CN1C[C@H](F)C[C@@H](Nc2nnc(-c3c(O)cc(C(F)(F)F)cc3F)c3cccn23)C1` [Compound I-416] fall in the same range of IC50: 0.001 to 0.01 µM for the first, 0.001 to 0.01 µM for the second.

Compared with `COc1ccc(-c2nnc(N[C@@H]3CCCN(C)C3)n3c(C)ncc23)c(O)c1` [Compound I-411], `CCN1CCC[C@@H](Nc2nnc(-c3ccc(Cl)cc3O)c3cncn23)C1` [Compound I-442] is lower in IC50: 0.01 to 0.1 µM for the first, less than 0.001 µM for the second. The second is the more potent here.

First: Oc1cc(C(F)(F)F)ccc1-c1nnc(N[C@@H]2CCCN(CC(F)F)C2)n2cccc12 [Compound I-412]
Second: CN1CCC[C@@H](Nc2nnc(-c3ccc(C(F)(F)F)cc3C(F)F)c3cccn23)C1 [Compound I-426]
The IC50 of the first is lower: less than 0.001 µM for the first, 0.01 to 0.1 µM for the second.

Compared with `OCCN1CCC[C@@H](Nc2nnc(-c3c(O)cc(C(F)(F)F)cc3F)c3cccn23)C1` [Compound I-415], `Cc1cc(C(F)(F)F)cc(O)c1-c1nnc(N[C@@H]2CCCN(C)C2)n2cccc12` [Compound I-431] is lower in IC50: 0.001 to 0.01 µM for the first, less than 0.001 µM for the second.

`Cc1cc(O)c(-c2nnc(N[C@@H]3CCC[C@H](O)C3)n3cccc23)c(F)c1` [Compound I-422] and `Oc1cc(C2CC2)cc(F)c1-c1nnc(N[C@@H]2CCC[C@H](O)C2)n2cccc12` [Compound I-424] fall in the same range of IC50: 0.001 to 0.01 µM for the first, 0.001 to 0.01 µM for the second.

Compared with `Oc1cc(C2CC2)cc(F)c1-c1nnc(N[C@@H]2CCCOC2)n2cccc12` [Compound I-423], `Oc1cc(C(F)(F)F)cc(F)c1-c1nnc(N[C@@H]2CCCN(C3CCOC3)C2)n2cccc12` (stereo partly shown) [Compound I-447] is lower in IC50: 0.01 to 0.1 µM for the first, 0.001 to 0.01 µM for the second.

Compared with `C[C@]1(O)C[C@@H](Nc2nnc(-c3ccc(C(F)(F)F)cc3C(F)F)c3cccn23)C1` [Compound I-427], `CN1CCC[C@@H](Nc2nnc(-c3ccc(Cl)cc3C(F)F)c3cccn23)C1` [Compound I-443, 1-[4-Chloro-2-(difluoromethyl)phenyl]-N-[(3R)-1-methyl-3-piperidyl]pyrrolo[1,2-d][1,2,4]triazin-4-amine] is lower in IC50: 0.01 to 0.1 µM for the first, 0.001 to 0.01 µM for the second. The second is the more potent here.

First: Cc1cc(F)c(-c2nnc(N[C@@H]3CCCN(C)C3)n3cccc23)c(OC(F)F)c1 [Compound I-428]
Second: CN1CCC[C@@H](Nc2nnc(-c3c(O)cc(Cl)cc3F)c3cccn23)C1 [Compound I-432]
The IC50 of the first is higher: 0.01 to 0.1 µM for the first, less than 0.001 µM for the second. The second is the more potent here.

First: Oc1cc(C(F)(F)F)cc(F)c1-c1nnc(N[C@@H]2CCCN(C3CCOCC3)C2)n2cccc12 [Compound I-430]
Second: CCN1CCC[C@@H](Nc2nnc(-c3c(O)cc(Cl)cc3F)c3cccn23)C1 [Compound I-433]
The IC50 of the first is higher: 0.001 to 0.01 µM for the first, less than 0.001 µM for the second. The second is the more potent here.

Compared with `C[C@]1(O)C[C@@H](Nc2nnc(-c3c(O)cc(Cl)cc3F)c3cccn23)C1` [Compound I-434], `Cc1cc(O)c(-c2nnc(N[C@@H]3C[C@@H](F)CN(C)C3)n3cccc23)c(F)c1` [Compound I-444] is lower in IC50: 0.001 to 0.01 µM for the first, less than 0.001 µM for the second.

`Oc1cc(Cl)ccc1-c1nnc(N[C@@H]2CCCNC2)n2cncc12` [Compound I-435] and `OCCN1CCC[C@@H](Nc2nnc(-c3ccc(Cl)cc3O)c3cncn23)C1` [Compound I-436] fall in the same range of IC50: 0.001 to 0.01 µM for the first, 0.001 to 0.01 µM for the second.

Compared with `C[C@@H](O)CNc1nnc(-c2ccc(OC(F)(F)F)cc2O)c2cccn12` [Compound I-437], `CC(C)(O)CNc1nnc(-c2ccc(OC(F)(F)F)cc2O)c2cccn12` [Compound I-438] is higher in IC50: 0.01 to 0.1 µM for the first, 0.1 to 0.3 µM for the second.

Work on `CN1CCC[C@@H](Nc2nnc(-c3ccc(C4CC4)cc3C(F)F)c3cccn23)C1` [Compound I-446, 1-[4-Cyclopropyl-2-(difluoromethyl)phenyl]-N-[(3R)-1-methyl-3-piperidyl]pyrrolo-[1,2-d][1,2,4]triazin-4-amine] yielded an IC50 of 0.001 to 0.01 µM.

same assay, conditions: THP-1 cells, 100 ng/mL PMA 24 h, compound 20 h, 2.5 μM Nigericin 3 h; read-out: IC50 IL-1β Inhibition

With `Cc1cc2c(-c3ccc(C4CC4)cc3OC(F)(F)F)nnc(N[C@@H]3CCCN(C)C3)n2n1` [Compound I-418] the IC50 was 0.001 to 0.01 µM.
Compound `Cc1cc2c(-c3ccc(C4CC4)cc3OC(F)(F)F)nnc(N[C@@H]3CCCN(C)C3)n2n1` [Compound I-419, (R)-4-(4-Cyclopropyl-2-(trifluoromethoxy)phenyl)-2-methyl-N-(1-methylpiperidin-3-yl)pyrazolo[1,5-d][1,2,4]triazin-7-amine] has an IC50 of 0.01 to 0.1 µM.
